# Source: US20070225246A1, “O-acetyl-ADP-ribose non-hydrolyzable analogs” (priority 2006, published 2007)
# Read-outs that look alike come from different tables or passages of the source.
# Columns and labels:
# [1] = HPLC stability studies at physiological temperature and pH; format: physicochemical; conditions: 500 μM in 50 mM Tris pH 7.5, 1 mM DTT, 37° C.
# Procedure: To validate the installation of an N-acetyl as a non-hydrolyzable substitution, the stabilities of both 2′- and 3′-NAADPr were evaluated at physiological temperature and pH using conditions previously described (Borra et al., 2002, J. Biol. Chem. 277: 12632-12641). […] HPLC analysis of both 2′- and 3′-NAADPr using exact conditions indicated negligable decomposition (<1%) over 3 days and confirmed the stability of the acetyl funcitonality to spontaneous hydrolysis at physiological pH.
# Reactions were carried out with both analogs (final concentration of 500 μM) in 50 mM Tris (pH 7.5 at 37° C.) containing 1 mM DTT. Samples were incubated at 37° C. over 3 days and four time points were collected (0, 24, 48, and 72 h). Each sample was quenched with H2O containing 0.05% TFA and analyzed by HPLC (analytical C18) using the method described in general procedures. Each trace was integrated (Shimadzu EZStart version 7.2.1 SP1) to determine peak area and analog percentage is shown in the following table 1. Both 2′- and 3′-NAADPr contained trace impurities at 12.9 and 12.5 min respectively and contributed to the observed degradation products visible at 23.3 min in each study.
# human macroH2A1.1 domain [2] = molecular target: T1, human macroH2A1.1 domain (Homo sapiens, UniProt O75367); assay: MacroH2A1.1 binding (calorimetry); conditions: method similar to Kustatcher
# T1 sequence (O75367 184-367 limits assumed): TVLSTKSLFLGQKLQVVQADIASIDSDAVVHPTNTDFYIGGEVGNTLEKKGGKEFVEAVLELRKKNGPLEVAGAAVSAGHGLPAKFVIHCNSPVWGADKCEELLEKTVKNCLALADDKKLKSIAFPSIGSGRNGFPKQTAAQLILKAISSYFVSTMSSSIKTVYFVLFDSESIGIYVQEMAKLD
# Text: (§1) MacroH2A1.1 is an atypical histone variant associated with heterochromatin and implicated in transcriptional repression. […] The splice-variant MacroH2A1.2 was also studied, but no binding of ADPr was observed. The binding of 2′- and 3′-NAADPr may be evaluated using a protocol similar to that described by Kustatcher.
# [3] = molecular target: splice-variant MacroH2A1.2 (Homo sapiens, UniProt O75367); assay: MacroH2A1.2 binding (calorimetry); conditions: method similar to Kustatcher
# Chain of splice-variant MacroH2A1.2 (O75367 1-372 isoform O75367-1): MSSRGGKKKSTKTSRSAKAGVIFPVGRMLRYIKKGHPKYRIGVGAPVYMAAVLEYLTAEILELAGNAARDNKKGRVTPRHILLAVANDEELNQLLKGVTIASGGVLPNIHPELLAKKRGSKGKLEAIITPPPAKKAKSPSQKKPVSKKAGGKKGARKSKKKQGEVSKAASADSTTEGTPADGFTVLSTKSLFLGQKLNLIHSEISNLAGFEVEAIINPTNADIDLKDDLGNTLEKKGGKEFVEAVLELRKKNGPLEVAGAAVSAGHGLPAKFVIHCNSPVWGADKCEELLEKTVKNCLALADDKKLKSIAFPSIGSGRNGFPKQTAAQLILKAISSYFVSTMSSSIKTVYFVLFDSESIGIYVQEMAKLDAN
# Text: as §1
# NudT9 [4] = molecular target: T2, NudT9 (Homo sapiens, UniProt Q9BW91); assay: Nudix hydrolase hydrolysis by NudT9 (Michaelis-Menten); format: biochemical; conditions: substrate 5-300 μM, NudT9 100 ng
# T2 sequence (Q9BW91 47-350): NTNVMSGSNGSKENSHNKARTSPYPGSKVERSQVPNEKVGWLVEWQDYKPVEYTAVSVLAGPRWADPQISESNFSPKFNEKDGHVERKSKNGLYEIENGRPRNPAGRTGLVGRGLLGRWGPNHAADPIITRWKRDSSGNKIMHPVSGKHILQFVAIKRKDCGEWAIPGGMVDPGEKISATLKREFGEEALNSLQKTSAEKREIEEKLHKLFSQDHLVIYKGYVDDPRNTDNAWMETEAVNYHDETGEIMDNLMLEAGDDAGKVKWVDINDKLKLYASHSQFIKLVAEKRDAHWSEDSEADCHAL
# Procedure: (§2) The Nudix hydrolases, mNudT5 and YSA1, and NudT9 are a family of ADPr metabolizing enzymes. […] Reaction mixtures containing ADPr (5-300 μM) were incubated with NudT9 (100 ng) or YSA1 (10 ng). Michaelis-Menten plots were generated for the hydrolysis of ADPr by NudT9 and YSA1. […] The hydrolysis of 2′- and 3′-NAADPr is evaluated using a protocol similar to that described by Rafty.
# YSA1 [5] = molecular target: T3, YSA1 (Saccharomyces cerevisiae, UniProt Q01976); assay: Nudix hydrolase hydrolysis by YSA1 (Michaelis-Menten); format: biochemical, yeast; conditions: substrate 5-300 μM, YSA1 10 ng
# T3 sequence (Q01976 1-231): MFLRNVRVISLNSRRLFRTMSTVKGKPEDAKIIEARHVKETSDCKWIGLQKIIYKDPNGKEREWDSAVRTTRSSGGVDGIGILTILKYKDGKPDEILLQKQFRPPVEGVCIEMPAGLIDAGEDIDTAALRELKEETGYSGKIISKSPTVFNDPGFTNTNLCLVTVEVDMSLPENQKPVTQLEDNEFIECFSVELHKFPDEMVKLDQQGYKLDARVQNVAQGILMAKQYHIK
# Procedure: as §2
# [6] = within 3 h, physiological temperature and pH (Borra et al., 2002); cited from earlier work
# human macroH2A1.1 domain [7] = molecular target: T1, human macroH2A1.1 domain; conditions: calorimetry, Kustatcher et al., 2005; cited from earlier work
# NudT9 [8] = molecular target: T2, NudT9; conditions: in vitro (Rafty et al., 2002); cited from earlier work
# YSA1 [9] = molecular target: T3, YSA1; conditions: in vitro (Rafty et al., 2002); cited from earlier work
# mNudT5 = mNudT5 (Mus musculus, UniProt Q9JKX6); conditions: in vitro (Rafty et al., 2002); cited from earlier work
# Chain of mNudT5 (Q9JKX6 whole entry): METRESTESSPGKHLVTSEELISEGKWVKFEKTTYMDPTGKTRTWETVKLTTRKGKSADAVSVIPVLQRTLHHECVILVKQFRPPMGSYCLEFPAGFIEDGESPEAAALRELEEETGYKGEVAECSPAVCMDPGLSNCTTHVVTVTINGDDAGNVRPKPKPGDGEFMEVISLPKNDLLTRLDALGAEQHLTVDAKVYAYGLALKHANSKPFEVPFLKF
compound,measurement,setting,value
3′-N-Acetyl-ADP-ribose [3′-NAADPr],analog percentage (HPLC peak area),[1]; 0 h,95.7%
same,analog percentage (HPLC peak area),[1]; 24 h,98.2%
same,analog percentage (HPLC peak area),[1]; 48 h,98.0%
same,analog percentage (HPLC peak area),[1]; 72 h,98.0%
"CC(=O)NC1C(O)O[C@H](COP(=O)(O)OP(=O)(O)OC[C@H]2O[C@@H](n3cnc4c(N)ncnc43)C(O)C2O)[C@@H]1O (stereo partly drawn) [2′-NAADPr, 2′-N-Acetyl-ADP-ribose]",analog percentage (HPLC peak area),[1]; 0 h,98.7%
same,analog percentage (HPLC peak area),[1]; 24 h,98.7%
same,analog percentage (HPLC peak area),[1]; 48 h,98.2%
same,analog percentage (HPLC peak area),[1]; 72 h,98.3%
"Nc1ncnc2c1ncn2[C@@H]1O[C@H](COP(=O)(O)OP(=O)(O)OC[C@H]2OC(O)[C@H](O)[C@@H]2O)[C@@H](O)[C@H]1O (stereo partly drawn) [ADPr, ADP-ribose]",Kd,human macroH2A1.1 domain [2],2.4 µM
same,enthalpy,human macroH2A1.1 domain [2],-15.4 kcal/mol
same,binding,[3],no binding
same,Km,NudT9 [4],23.9 µM
same,kcat,NudT9 [4],9.3 s⁻¹
same,Km,YSA1 [5],39.9 µM
same,kcat,YSA1 [5],6.5 s⁻¹
O-Acetyl-ADP-ribose [OAADPr],hydrolyzed to ADPr,[6],approximately 18%
same,Kd,human macroH2A1.1 domain [7],~2 µM
same,enthalpy,human macroH2A1.1 domain [7],-17.8 kcal/mol
same,"hydrolysis efficiency, less efficient as compared to ADPr",NudT9 [8],500 fold
same,hydrolysis to AMP and acetylated ribose 5′-phosphate,YSA1 [9],efficiently hydrolyze
same,hydrolysis to AMP and acetylated ribose 5′-phosphate,mNudT5,efficiently hydrolyze
